Assay results published in publication PMC6478794, “Identification of a Novel Bcl-2 Inhibitor by Ligand-Based Screening and Investigation of Its Anti-cancer Effect on Human Breast Cancer Cells” (Frontiers in Pharmacology, 2019).
Like-named read-outs stand apart in the source and are kept apart here.

Assays:
[1] = set-up: method as in Seymour et al., 2013; Vandenberg and Cory, 2013; conditions: ref Seymour et al., 2013, Vandenberg and Cory, cited from earlier work
hematologic malignancies = conditions: preclinical researches; cited from earlier work
[2] = set-up: method as in Schoenwaelder et al., 2011; conditions: in vivo; ref Schoenwaelder et al., 2011; cited from earlier work
Bcl-2 [3] = conditions: cited from earlier work
Bcl-xl = conditions: cited from earlier work
[4] = biological target: recombinant human Bcl-2 protein (Homo sapiens, UniProt P10415); assay: Surface plasmon resonance (SPR) binding assay
Description: The interaction between virtual screening candidates and Bcl-2 was determined using a PlexArray HT biological molecular interaction analyzer (PLEXERA LLC, USA). Candidates were covalently immobilized to the surface of sensor chip following the standard coupling reaction guide. Candidates were dissolved in DMSO to a final concentration of 10 μM. To analyze binding signal, a set of concentration gradient (700, 350, 175, 87.5 nM) of Bcl-2 protein were, respectively, diluted with PBST (1x PBS + 0.1% Tween-20, pH 7.4). PBST was also used as running buffer and samples were injected into the flow cell chamber of the sensor chip one by another with rate of 2 μL/s for 300 s. After the injection stage, running buffer was flowed over the chip surface for 300 s at 2 μL/s to allow the bound analytes to dissociate from the Bcl-2. The response unit (RU) of sample dots on the chip surface was recorded by the interaction analyzer during the whole process. In this way, dissociation curves obtained. HBS-P buffer was used as vehicle controls. Lastly, the changes in RU and the binding curve were measured by the PlexeraDE software (PLEXERA LLC, USA).

MDA-MB-231 cells [5] = assay: Cell viability CCK-8 assay; assay type: cell-based; conditions: Homo sapiens, 48 h
Description: (§1) The human breast cancer cell line MDA-MB-231, T47D, and BT549, were purchased from Cell Bank of Chinese Academy of Sciences. MDA-MB-231 were cultured in L-15 medium with 10% FBS at 37°C with 100% air, and T47D were cultured in DMEM/High glucose medium with 10% FBS at 37°C with 5% CO2. BT549 was cultured in 1,640 medium with 10% FBS at 37°C with 5% CO2.
(§2) Cell viability was measured by Cell Counting Kit-8 (CCK-8) assay following the manufacturer's protocol. Cells were plated at 5 × 10^3 cells per well in 96-well plates. After compound M1 treatment, cells were incubated with 10 μL CCK-8 for 2 h at 37°C with 5% CO2. The results were determined at 450 nm wave length.

T47D cells [6] = assay: Annexin V-FITC/PI apoptosis assay (flow cytometry); assay type: cell-based, human; conditions: 48 h
Description: Cell apoptosis was measured by Annexin V-FITC/PI double-staining Kit following the manufacturer's protocol. After treatment with 8 or 16 μM compound M1 for 48 h, cells were washed twice with cold phosphate buffer saline and then, suspended in 100 μL binding buffer (BD CAT. NO.556547) with 5 μL Annexin-V (BD CAT. NO.556420) and 5 μL PI (BD CAT. NO.556463). And cells were gently vortexed and incubated at room temperature for 15 min in darkness for flow cytometric (Becton Dickison) analysis.

MDA-MB-231 cells [7] = assay: EdU incorporation assay; assay type: cell-based, human; conditions: 4 or 8 μM, 48 h
Description: Cell Proliferation was measured by Cell Light EdU DNA Cell Proliferation Kit. Cells were plated in 96-well culture plates. Cells were treated with 4 or 8 μM compound M1 for 48 h. At the end of treatment, cells were incubated with EdU reagent for 2 h at 37°C. Four percent of paraformaldehyde was used to fix the cells for 15 min. Then, cells were incubated with 0.5% Triton X-100 for 30 min. Washed cells with PBS three times. After that, cells were dyed with reaction cocktail for 30 min, and stained cell nucleus with 5 μg/mL of Hoechst 33,342 for 30 min. Images were observed by fluorescent microscope.

MDA-MB-231 cells [8] = assay: Clonogenic assay; assay type: cell-based, human; conditions: 4 or 8 μM, 48 h, then 10 days
Description: The cells were plated at 200 cells per well in six-well culture plates followed by compound M1 for 48 h. At the end of treatment, the cells were cultured with fresh medium, and were grown at 37°C for 10 days. After colony formation, the cells were washed with PBS and immobilized by 4% formaldehyde at room temperature for 30 min. Finally, the cells were dyed with 0.5% crystal violet.

Bcl-2 [9] = assay: Western blot of Bcl-2 expression; assay type: cell-based, human; conditions: MDA-MB-231, T47D, and BT549 cells; different doses 48 h or 8 μM over time
Description: (§3) After compound M1 treatment, cells were lysed with RIPA buffer supplemented with protease inhibitor (Selleck) on ice for 30 min following by centrifugation at 14,000 × g for 15 min. Protein concentrations of the lysates were determined by BCA assay kit. Equivalent amounts of cellular protein were separated by SDS-PAGE and transferred to polyvinylidene difluoride membranes. And then, the membranes were blocked with 5% skim milk in TBST. The membranes were incubated with primary antibodies and peroxidase-conjugated secondary antibodies. Finally, the membranes were visualized with an enhanced chemiluminescent detection kit.

MDA-MB-231 cells [10] = assay: Mitochondrial membrane potential (JC-1 staining); assay type: cell-based, human; conditions: 2 or 4 μM, 48 h
Description: The MMP was measured using JC-1 assay kit according to the manufacturer's protocol. Cells were treated with 2 or 4 μM compound M1 for 48 h. The cells were cultured with JC-1 staining reagent (1x) at 37°C for 20 min. Cells were washed twice by JC-1 staining buffer. Next, the fluorescence intensity of JC-1 aggregate or monomer was observed by fluorescent microscopic. The ratio of aggregates to monomers was estimated as a symbol of mitochondrial membrane potential.

MDA-MB-231 cells [11] = assay: Detection of reactive oxygen species (DCFH-DA); assay type: cell-based, human; conditions: 2 or 4 μM, 48 h
Description: Cells were treated with 2 or 4 μM compound M1 for 48 h. After that, cells were rinsed twice with PBS and incubated with DCFH-DA (10 μmol/L) at 37°C in a darkroom. The fluorescence intensity of DCF was detected at an emission wavelength of 525 nm and excitation wavelength of 488 nm.

T47D cells [12] = assay: Western blot of cytochrome c in mitochondrial and cytosol fraction; assay type: cell-based, human; conditions: 4 or 8 μM, 48 h
Description: as §3

T47D and BT549 cells = assay: Western blot of cleaved caspase-3 and cleaved PARP; assay type: cell-based, human; conditions: 48 h
Description: as §3

[13] = system: MDA-MB-231, T47D, and BT549 cells; assay: CCK-8 cell viability, dose and time course in three breast cancer cell lines; assay type: cell-based, human; conditions: series of doses 72 h; time course at 5, 2, or 3 μM
Description: as §1, §2

Mcl-1 = conditions: cited from earlier work
[14] = cited from earlier work
[15] = compound immobilized on chip, Bcl-2 protein 700 nM, read-out: KD, dissociation equilibrium constant

Sequence of recombinant human Bcl-2 protein (P10415 whole entry): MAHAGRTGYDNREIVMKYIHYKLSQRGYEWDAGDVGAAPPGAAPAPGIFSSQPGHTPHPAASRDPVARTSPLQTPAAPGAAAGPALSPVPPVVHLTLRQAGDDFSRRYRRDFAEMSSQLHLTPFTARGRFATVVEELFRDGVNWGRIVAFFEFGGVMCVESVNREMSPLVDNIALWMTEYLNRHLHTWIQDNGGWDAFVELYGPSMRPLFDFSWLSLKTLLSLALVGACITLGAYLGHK

CC1(C)CCC(CN2CCN(c3ccc(C(=O)NS(=O)(=O)c4ccc(NCC5CCOCC5)c([N+](=O)[O-])c4)c(Oc4cnc5[nH]ccc5c4)c3)CC2)=C(c2ccc(Cl)cc2)C1 [ABT-199]
tumor lysis syndrome ([1]; patients with chronic lymphocytic leukemia): tumor lysis syndrome was caused
activity in patients with lymphoma ([1]; phase I trials): greater activity than ABT-263
effects on platelet counts ([1]; phase I trials): no significant effects on platelet counts

CC1(C)CCC(c2ccc(Cl)cc2)=C(CN2CCN(c3ccc(C(=O)NS(=O)(=O)c4ccc(N[C@H](CCN5CCOCC5)CSc5ccccc5)c(S(=O)(=O)C(F)(F)F)c4)cc3)CC2)C1 [ABT-263]
cytotoxicity against hematologic malignancies (hematologic malignancies): significant cytotoxicity
thrombocytopenia [2]: can cause thrombocytopenia

CN(C)CC[C@H](CSc1ccccc1)Nc1ccc(S(=O)(=O)NC(=O)c2ccc(N3CCN(Cc4ccccc4-c4ccc(Cl)cc4)CC3)cc2)cc1[N+](=O)[O-] [ABT-737]
affinity with Bcl-2 (Bcl-2 [3]): high affinity
affinity with Bcl-xl (Bcl-xl): high affinity
cytotoxicity against hematologic malignancies (hematologic malignancies): significant cytotoxicity
thrombocytopenia [2]: can cause thrombocytopenia

COc1cc(N2C(C(C)=O)=NN(c3ccc(C)cc3)C2c2ccccc2OCc2ccccc2F)ccc1NC(=O)C(C)C (stereo not drawn) [M1]
koff [4]: 0.00142 s⁻¹
kon [4]: 4480 M⁻¹ s⁻¹
Kd ([4]; M1, text and Figure 5B, read-out: KD): 0.37 µM
Kd [4, 15]: 0.317 µM
IC50 (MDA-MB-231 cells [5]): 5 µM
apoptosis (Annexin V staining) (T47D cells [6]): dose-dependent increase in apoptosis
EdU-positive cells (MDA-MB-231 cells [7]): reduced number of EdU-positive cells
clonogenicity (MDA-MB-231 cells [8]): reduced in a dose-dependent manner
protein expression of Bcl-2 (Bcl-2 [9]): decreased the protein expression of Bcl-2
mitochondrial membrane potential (MMP) (MDA-MB-231 cells [10]): caused the disturbance of MMP
level of generated ROS (MDA-MB-231 cells [11]): elevation in the level of generated ROS
release of cytochrome c from mitochondria to cytosol (T47D cells [12]): increased the release of cytochrome c
cleaved PARP and cleaved caspase-3 (T47D and BT549 cells): increase
cell proliferation (cell viability) [13]: inhibits cell proliferation in concentration- and time- dependent

Cc1ccc(S(=O)(=O)N(Cc2ccc(Cl)cc2)c2ccccc2C(=O)Nc2ccccc2C(=O)NC(C)c2ccccc2)cc1 (stereo not drawn) [M2]
Kd [4, 15]: 0.406 µM
IC50 (MDA-MB-231 cells [5]): > 50 µM

Cc1cc(C(=O)C2=C(O)C(=O)N(CCCN3CCOCC3)C2c2cccc(Oc3ccccc3)c2)ccc1OCc1ccccc1 (stereo not drawn) [M3]
Kd [4, 15]: 0.856 µM
IC50 (MDA-MB-231 cells [5]): > 50 µM

COc1cc(-c2cc(-c3ccccc3)nc(SCC(=O)Nc3cc(Cl)ccc3C)c2C#N)ccc1OCc1ccccc1 [M4]
Kd [4, 15]: 4.76 µM
IC50 (MDA-MB-231 cells [5]): > 50 µM

Cc1ccc(S(=O)(=O)N(Cc2ccc(Cl)cc2)c2ccccc2C(=O)Nc2ccc(S(=O)(=O)Nc3ccc(F)cc3)cc2)cc1 [M5]
Kd [4, 15]: 0.57 µM
IC50 (MDA-MB-231 cells [5]): > 50 µM

COc1ccc(/C=c2/sc3n(c2=O)C(c2ccc(Cl)cc2)C(C(=O)Nc2ccccc2)=C(C)N=3)cc1COc1ccc(F)cc1F (stereo not drawn) [M6]
Kd [4, 15]: 0.0685 µM
IC50 (MDA-MB-231 cells [5]): > 50 µM

CCN(CC)c1ccc(N2C(C(C)=O)=NN(c3ccc(Cl)cc3)C2c2ccccc2OCc2ccc(Cl)cc2Cl)cc1 (stereo not drawn) [M7]
Kd [4, 15]: 1.59 µM
IC50 (MDA-MB-231 cells [5]): > 50 µM

CCOc1cccc(C2N(c3ccccc3)N=C(C(C)=O)N2c2ccc(N3CCOCC3)c(Cl)c2)c1OCc1ccc(Cl)cc1Cl (stereo not drawn) [M8]
Kd [4, 15]: 10.8 µM
IC50 (MDA-MB-231 cells [5]): > 50 µM

AT-101
affinity with Bcl-2 (Bcl-2 [3]): submicromolar concentrations
affinity with Bcl-xl (Bcl-xl): submicromolar concentrations
affinity for Mcl-1 (Mcl-1): submicromolar concentrations
clinical activity ([14]; early phase II trials, monotherapy or combination, lung and prostate cancers, ref Ready et al., 2011): failed to exert significant clinical activity
tolerability in patients ([14]; ref Liu et al., 2009): well-tolerated
